For one experiment, the target named is urokinase (Homo sapiens, UniProt P00749). Kind of experiment: urokinase inhibitory activity in in vitro assays. It counts as biochemical. Particulars: for urokinase inhibitory activity: in vitro assays.
In a further experiment the test system is thrombin. The following applies: in vitro assays.

SMILES strings stand for the structures.

As to `C[C@H](NC(=O)[C@@H](CO)NCCCc1ccccc1)C(=O)N[C@H](C=O)CCCNC(=N)N.O=C(O)C(F)(F)F` [Example 26, N-alpha-(3-phenylpropyl)-D-seryl-alanyl-argininal, trifluoroacetate salt], on urokinase, the urokinase inhibitory activity result is listed as “shown to have urokinase inhibitory activity”.

Regarding `N=C(N)NCCCC(C=O)NC(=O)C1CCN1C(=O)C(CO)NS(=O)(=O)c1ccccc1.O=C(O)C(F)(F)F` [Example 14, benzenesulfonyl-D-seryl-azetidyl-argininal, trifluoroacetate salt], at urokinase, the “specific inhibitory activity toward urokinase” value is “demonstrates specific inhibitory activity toward urokinase” and the urokinase inhibitory activity entry is reported as “shown to have urokinase inhibitory activity”.

Consider `N=C(N)NCCCC(C=O)NC(=O)CN1CCCC(NS(=O)(=O)Cc2ccccc2)C1=O` (stereo not shown) [Example 8, Benzylsulfonamido-6Lactam-Gly-Argininal], for which the thrombin inhibitory activity result in the experiment on thrombin is “shown to have thrombin inhibitory activity”.

These data come from patent US6787612B1, “Resin derivatization method and uses thereof” (Dendreon Corporation, priority 1998, dated 2004).
